According to ChEMBL document CHEMBL3108669, “Modulation of reactive oxygen species photogeneration of bacteriopheophorbide a derivatives by exocyclic E-ring opening and charge modifications” (J Med Chem, 2014):

How the values were obtained:
Type in all cases: physicochemical
[1] = Induction of ROS generation in RPMI-1640 cell culture media/DMSO/cremophor solution by SOSG-based fluorescence assay
[2] = Induction of ROS generation in MeOH/PBS solution by SOSG-based fluorescence assay; conditions: buffer
[3] = Induction of ROS generation in water/cremophor/DMF solution by SOSG-based fluorescence assay; conditions: buffer
[4] = Induction of ROS generation in RPMI-1640 cell culture media/DMSO/cremophor solution by AUR-based fluorescence assay
[5] = Induction of ROS generation in water/cremophor/DMF solution by AUR-based fluorescence assay; conditions: buffer
[6] = Induction of ROS generation in MeOH/PBS solution by AUR-based fluorescence assay; conditions: buffer

Activity [1] | Activity [2] | Activity [3] | Activity [4] | Activity [5] | Activity [6] | Compound
Active | Active | Active | Active | Active | Active | CC[C@H]1c2cc3[nH]c4c(c3C)C(=O)[C@H](C(=O)OC)c4c3nc(cc4[nH]c(cc(n2)[C@@H]1C)c(C(C)=O)c4C)[C@@H](C)[C@@H]3CCC(=O)NCCS(=O)(=O)O
Active | Active | Active | Active | Active | Active | CC[C@H]1c2cc3[nH]c4c(c3C)C(=O)[C@H](C(=O)OC)c4c3nc(cc4[nH]c(cc(n2)[C@@H]1C)c(C(C)=O)c4C)[C@@H](C)[C@@H]3CCC(=O)OCC[N+](C)(C)C
Active | Active | Active | Active | Active | Active | CC[C@H]1c2cc3[nH]c4c(c3C)C(=O)[C@H](C(=O)OC)c4c3nc(cc4[nH]c(cc(n2)[C@@H]1C)c(C(C)=O)c4C)[C@@H](C)[C@@H]3CCC(=O)OC
Active | Active | Active | Active | Active | Active | CC[C@H]1c2cc3[nH]c4c(c3C)C(=O)[C@H](C(=O)OC)c4c3nc(cc4[nH]c(cc(n2)[C@@H]1C)c(C(C)=O)c4C)[C@@H](C)[C@@H]3CCC(=O)O

Continued, molecule first:

Compound | Activity [1] | Activity [2] | Activity [3] | Activity [4] | Activity [5] | Activity [6]
CC[C@H]1c2cc3[nH]c(c(CC(=O)OC)c4nc(cc5[nH]c(cc(n2)[C@@H]1C)c(C(C)=O)c5C)[C@@H](C)[C@@H]4CCC(=O)NCCS(=O)(=O)O)c(C(=O)NCCS(=O)(=O)O)c3C | Active | Active | Active | Active | Active | Active
CC[C@H]1c2cc3[nH]c(c(CC(=O)OC)c4nc(cc5[nH]c(cc(n2)[C@@H]1C)c(C(C)=O)c5C)[C@@H](C)[C@@H]4CCC(=O)OCC[N+](C)(C)C)c(C(=O)NCCS(=O)(=O)O)c3C | Active | Active | Active | Active | Active | Active
CC[C@H]1c2cc3[nH]c(c(CC(=O)OC)c4nc(cc5[nH]c(cc(n2)[C@@H]1C)c(C(C)=O)c5C)[C@@H](C)[C@@H]4CCC(=O)OC)c(C(=O)NCCS(=O)(=O)O)c3C | Active | Active | Active | Active | Active | Active
CC[C@H]1c2cc3[nH]c(c(CC(=O)OC)c4nc(cc5[nH]c(cc(n2)[C@@H]1C)c(C(C)=O)c5C)[C@@H](C)[C@@H]4CCC(=O)O)c(C(=O)NCCS(=O)(=O)O)c3C | Active | Active | Active | Active | Active | Active
